Like-named read-outs stand apart in the source and are kept apart here.
Key:
α-amylase = conditions: validation set, cited from earlier work
[1] = study encompassing 714 medicated patients; ref [10]; cited from earlier work
[2] = molecular target: T1, α-amylase from porcine pancreas (Sus scrofa, UniProt P00690); assay: In vitro pancreatic α-amylase inhibitory assay (starch/DNS, 540 nm); format: biochemical; conditions: 1% starch, pH 6.9, 25 °C, read-out: IC50 (α-amylase inhibition)
T1 construct: α-amylase from porcine pancreas (A3176); purchased Sigma-Aldrich (Germany) A3176; host or cells: porcine pancreas (tissue-derived)
T1 sequence (P00690 16-511): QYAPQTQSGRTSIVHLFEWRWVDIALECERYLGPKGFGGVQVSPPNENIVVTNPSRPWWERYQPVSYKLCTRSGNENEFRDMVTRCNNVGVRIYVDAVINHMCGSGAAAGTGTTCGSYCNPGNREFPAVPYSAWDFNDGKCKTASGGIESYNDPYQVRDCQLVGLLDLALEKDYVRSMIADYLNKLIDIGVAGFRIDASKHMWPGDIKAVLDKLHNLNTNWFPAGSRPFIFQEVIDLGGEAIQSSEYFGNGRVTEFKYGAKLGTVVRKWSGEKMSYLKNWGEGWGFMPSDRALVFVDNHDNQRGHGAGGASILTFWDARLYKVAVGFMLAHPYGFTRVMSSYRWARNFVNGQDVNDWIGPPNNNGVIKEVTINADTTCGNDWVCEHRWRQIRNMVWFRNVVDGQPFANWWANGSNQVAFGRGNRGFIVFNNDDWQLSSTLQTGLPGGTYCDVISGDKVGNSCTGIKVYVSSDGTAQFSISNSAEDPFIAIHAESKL
Method: Analytical purity grade solvents were used throughout the study.
With reference to the established technique, the assay was carried out quantitatively with minor adjustments. Initially, 500µL test solution was preincubated with 500µL α-amylase solution (0.55 unit/mL) at 25°C for 10 min. The α-amylase was prepared in a buffer solution (0.02M sodium phosphate pH 6.9 with 0.006M NaCl). Afterwards, 500µL of 1% w/v starch in buffer solution was mixed in and left to incubate for 10 min at 25°C. To bring the reaction to a halt, 1mL dinitrosalicylic acid (DNS) was introduced and the mixture was placed in a boiling water bath for 3.5 min. After cooling to room temperature, the mixture was then diluted using 10mL distilled water and absorbance was measured using a Laxco spectrophotometer (α1502, Laxco Inc., USA) at λ 540nm. Blanks used throughout the experiment were made by adding pure buffer instead of α-amylase solution. […] To calculate the pancreatic α-amylase inhibitory activity, the following equation was used: %Inhibtion=100×1-Abs540nmExtract-Abs540nmPositivecontrol/Abs540nmNegativecontrol-Abs540nmPositivecontrol

Question: For `O=c1c(O)c(-c2ccc(O)cc2)oc2cc(O)ccc12` [3,7,4'-Trihydroxyflavone], which IC50 (α-amylase; supplement ref [8]) is on record?
Answer: 59 ± 4 µM

Question: With `O=c1cc(-c2ccc(O)c(O)c2)oc2cccc(O)c12` [5,3',4'-Trihydroxyflavone] as the compound, how does the IC50 (α-amylase; supplement ref [8]) read?
Answer: 148 ± 5 µM

Question: Which IC50 (α-amylase; supplement ref [11]) does the source give for `O=c1c(Cc2ccc(O)cc2)coc2cc(O)cc(O)c12` [5,7-dihydroxy-3-(4′-hydroxybenzyl) chromone] here?
Answer: 2590 ± 50 µM

Question: Which IC50 (α-amylase; supplement ref [11]) does the source give for `Cc1c(O)cc2c(c1O)C(=O)C(Cc1ccc(O)cc1)CO2` (stereo not shown) [5,7-dihydroxy-6-methyl-3-(4′-hydroxybenzyl) chroman-4-one] here?
Answer: 5990 ± 60 µM

Question: Which IC50 (α-amylase; supplement ref [8]) does the source give for `O=c1cc(-c2ccc(O)c(O)c2)oc2cc(O)c(Cl)c(O)c12` [6-Chloro-3',4',5,7-tetrahydroxyflavone] here?
Answer: 44 ± 3 µM

Question: Which IC50 (α-amylase; supplement ref [3]) does the source give for `O=c1cc(-c2ccc(O)c(O)c2)oc2cc(O)ccc12` [7, 3', 4'-trihydroxyflavone] here?
Answer: 16.3 ± 0.52 µM

Question: For `COc1cc(OC)c2c(c1C)O[C@H](c1ccc(O)cc1)CC2` [(2S)-4′-hydroxy-5,7-dimethoxy-8-methylflavan], which IC50 (α-amylase; supplement ref [11]) is on record?
Answer: 6030 ± 270 µM

Question: With `C[C@H]1O[C@H](O[C@H]2[C@H](O)[C@@H](O)[C@@H](O[C@H]3[C@H](O)[C@@H](O)C(O)O[C@@H]3CO)O[C@@H]2CO)[C@H](O)[C@@H](O)[C@@H]1N[C@H]1C=C(CO)[C@@H](O)[C@H](O)[C@H]1O` (stereo partly shown) [Acarbose] as the compound, how does the “participants who discontinued acarbose due to gastrointestinal side effects” value [1] read?
Answer: 19%

Question: For `O=C(O)C1OC(Oc2cc(O)c3c(=O)cc(-c4ccc(O)cc4)oc3c2)C(O)C(O)C1O` [Apigenin-7-O-β-D-glucopyranuronide], which IC50 (α-amylase; supplement ref [3]) is on record?
Answer: 10.4 ± 2.51 µM

Question: Which IC50 (α-amylase; supplement ref [3]) does the source give for `O=c1cc(-c2ccc(O)cc2)oc2cc(O)cc(O)c12` [Apigenin] here?
Answer: 12.2 ± 2.14 µM

Question: With `OCC1=C[C@@H](O)[C@@H]2C=CO[C@@H](O[C@@H]3O[C@H](CO)[C@@H](O)[C@H](O)[C@H]3O)[C@H]12` [Aucubin] as the compound, how does the IC50 [2] read?
Answer: 2370 µM

Question: Which IC50 (α-amylase; supplement ref [12]) does the source give for `O=c1cc(-c2ccccc2)oc2cc(O)c(O)c(O)c12` [Baicalein] here?
Answer: 11200 ± 200 µM

Question: For `O=C(O)/C=C/c1ccc(O)c(O)c1` [Caffeic acid], which IC50 (α-amylase; supplement ref [13]) is on record?
Answer: 19400 µM

Question: With `Oc1cc(O)c2c(c1)OC(c1ccc(O)c(O)c1)C(O)C2` (stereo not shown) [Catechin] as the compound, how does the IC50 [2] read?
Answer: 5040 ± 40 µM

Question: What about the IC50 (α-amylase; supplement ref [9]) of the same compound?
Answer: 1160 ± 24 µM

Question: Which IC50 [2] does the source give for `O=C(/C=C/c1ccc(O)c(O)c1)O[C@@H]1C[C@](O)(C(=O)O)C[C@@H](O)[C@H]1O` [Chlorogenic Acid, chlorogenic acid] here?
Answer: 7390 ± 220 µM

Question: And the IC50 (α-amylase; supplement ref [9])?
Answer: 1050 ± 18 µM

Question: With `O=c1cc(-c2ccccc2)oc2cc(O)cc(O)c12` [Chrysin] as the compound, how does the IC50 (α-amylase; supplement ref [12]) read?
Answer: 15300 ± 374 µM

Question: For `OC[C@H]1O[C@@H](Oc2cc3c(O[C@@H]4O[C@H](CO)[C@@H](O)[C@H](O)[C@H]4O)cc(O)cc3[o+]c2-c2ccc(O)c(O)c2)[C@H](O)[C@@H](O)[C@@H]1O` [Cyanidin-3,5-glucoside], which IC50 (α-amylase; supplement ref [5]) is on record?
Answer: 40 ± 7 µM

Question: Which IC50 (α-amylase; supplement ref [5]) does the source give for `OC[C@H]1O[C@@H](Oc2cc3c(O)cc(O)cc3[o+]c2-c2ccc(O)c(O)c2)[C@H](O)[C@@H](O)[C@@H]1O` [Cyanidin-3-glucoside] here?
Answer: 24 ± 3 µM

Question: With `C[C@@H]1O[C@@H](OC[C@H]2O[C@@H](Oc3cc4c(O)cc(O)cc4[o+]c3-c3ccc(O)c(O)c3)[C@H](O)[C@@H](O)[C@@H]2O)[C@H](O)[C@H](O)[C@H]1O` [Cyanidin-3-rutinoside] as the compound, how does the IC50 (α-amylase; supplement ref [6]) read?
Answer: 24.4 ± 0.1 µM

Question: With `O=C(O[C@@H]1Cc2c(O)cc(O)cc2O[C@@H]1c1cc(O)c(O)c(O)c1)c1cc(O)c(O)c(O)c1` [Epigallocatechin gallate] as the compound, how does the IC50 (α-amylase; supplement ref [4]) read?
Answer: 11.5 ± 0.02 µM
